# Results from US6503923B1, “Haloalkoxy imidazonaphthyridines” (ALTANA Pharma AG, priority 1999, dated 2003).
# What was measured:
# [1] = system: pentagastrin-stimulated acid secretion of perfused rat stomachs; assay: Antisecretory action in perfused rat stomachs (pentagastrin-stimulated acid secretion in vivo); details: anesthetized CD rat, female, dose 3 μmol/kg i.v., perfused stomach
# Description: Testing of the Antisecretory Action in Perfused Rat Stomachs
# The influence of the compounds according to the invention after intravenous administration on the pentagastrin-stimulated acid secretion of perfused rat stomachs in vivo is shown in Table A which follows.
# The abdomen of anesthetized rates (CD rat, female, 200-250 g; 1.5 g/kg i.m. urethane) was opened after tracheotomy by means of a median upper abdominal incision and a PVC catheter was fixed transorally in the esophagus and another via the pylorus such that the ends of the tubes just projected into the gastric lumen. The catheter leading from the pylorus led outwards into the right abdominal wall through a side opening.
# After thorough rinsing (about 50-100 ml), warm physiological NcCl solution (37° C.) was continuously passed through the stomach (0.5 ml/min, pH 6.8-6.9, Braun-Unita I). The pH (pH meter 632, glass electrode EA 147; φ=5 mm, Metrohm) and, by titration with a freshly prepared 0.01 N NaOH solution to pH 7 (dosimat 665 Metrohm), the secreted HCl were determined in the effluent, in each case collected at an interval of 15 minutes.
# The gastric secretion was stimulated by continuous infusion of […] (=1.65 ml/h) of i.v. pentagastrin (left femoral vein) about 30 min after the end of the operation (i.e. after determination of 2 preliminary fractions). […]
compound,measurement,setting,value
"Cc1nc2c3c(ccn2c1C)[C@@H](OCC(F)(F)F)[C@H](O)[C@@H](c1ccccc1)N3 [Example 1, (7R, 8R, 9R)-2,3-Dimethyl-8-hydroxy-7-(2,2,2-trifluoroethoxy)-9-phenyl-7,8,9,10-tetra-hydroimidazo[1,2-h][1,7]naphthyridine]",Inhibition of acid secretion,[1],100%
same,melting point,,178 to 180 °C
